The values below come from patent publication US12139477B2, “Compounds, salts thereof and methods for treatment of diseases” (ACADIA PHARMACEUTICALS INC., priority 2017, dated 2024).

In the assay the target is 5HT2A (Homo sapiens, UniProt P28223). Briefly: Receptor Selection and Amplification (R-SAT) functional assay. Conditions: NIH3T3 cells, Ki from IC50 by Cheng and Prussoff; for Ki: read-out: 5-HT2a (pKi) (R-SAT) (converted). The format is cell-based. On the set-up: expressed in transfected cells; host or cells: NIH3T3 cells, pSI mammalian expression vector. The source says: Receptor Selection and Amplification (R-SAT) Assays. […] The IC50 determined in the RSAT assay was converted into a Ki value using the method of Cheng and Prussoff, Biochem Pharmacol., 1973 Dec. 1; 22(23):3099-108. pKi is the negative of the log(Ki).
Sequence of 5HT2A (P28223 whole entry): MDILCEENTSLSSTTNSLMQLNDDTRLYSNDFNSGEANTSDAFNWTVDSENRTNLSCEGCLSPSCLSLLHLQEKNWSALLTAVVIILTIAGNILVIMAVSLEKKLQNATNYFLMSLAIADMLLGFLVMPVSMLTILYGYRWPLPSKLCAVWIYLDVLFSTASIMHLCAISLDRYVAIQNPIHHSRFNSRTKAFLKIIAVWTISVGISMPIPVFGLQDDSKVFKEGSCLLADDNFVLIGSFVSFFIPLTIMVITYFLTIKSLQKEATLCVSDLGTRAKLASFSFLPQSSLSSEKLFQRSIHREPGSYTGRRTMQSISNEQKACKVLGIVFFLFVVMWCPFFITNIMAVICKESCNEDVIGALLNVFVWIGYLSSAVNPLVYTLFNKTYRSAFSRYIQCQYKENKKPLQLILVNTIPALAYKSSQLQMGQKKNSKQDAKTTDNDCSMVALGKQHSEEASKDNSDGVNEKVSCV

On to `CC(C)COc1ccc(CNC(=O)N(Cc2ccc(F)cc2OC(F)(F)F)C2CCN(C)CC2)cc1` [Example 103, 1-{[4-fluoro-2-(trifluoromethoxy)phenyl]methyl}-1-(1-methylpiperidin-4-yl)-3-{[4-(2-methylpropoxy)phenyl]methyl}urea; Trifluoroacetic Acid], for which the Ki is 251 nM.
On the same count and under the same terms, under `O=C(O)C(F)(F)F.[2H]C1([2H])Oc2ccc(CNC(=O)N(Cc3ccc(F)cc3F)C3CCN(C)CC3)cc2C1([2H])[2H]` [Example 159, 1-[(2,4-difluorophenyl)methyl]-3-{[2,3-dihydro(2,2,3,3-^2H4)-1-benzofuran-5-yl]methyl}-1-(1-methylpiperidin-4-yl)urea; Trifluoroacetic Acid] stands 7.94 nM; under `CC(C)COc1ccc(CNC(=O)N(Cc2ccc(C(F)(F)F)cc2F)C2CCN(C)CC2)cc1` [Example 68], 20 nM.
Same read-out and setting: under `CC(C)Oc1ccc(CNC(=O)N(Cc2ccc(Cl)cc2Cl)C2CCN(C)CC2)cc1` [Example 106, 1-[(2,4-dichlorophenyl)methyl]-1-(1-methylpiperidin-4-yl)-3-{[4-(propan-2-yloxy)phenyl]methyl}urea; Trifluoroacetic Acid] stands 50.1 nM; under `[2H]C([2H])([2H])Oc1ccc(CNC(=O)N(Cc2ccc(F)cc2F)C2CCN(C)CC2)cc1` [Example 73, 1-[(2,4-difluorophenyl)methyl]-3-{[4-(^2H3)methoxyphenyl]methyl}-1-(1-methylpiperidin-4-yl)urea], 6.31 nM.
Same read-out and setting: under `COc1cc(F)c(F)cc1CN(C(=O)NCc1ccc(OC(C)C)cc1)C1CCNCC1` [Example 83, 3-[(4,5-difluoro-2-methoxyphenyl)methyl]-3-(piperidin-4-yl)-1-{[4-(propan-2-yloxy)phenyl]methyl}urea; Trifluoroacetic Acid] stands 158 nM.
On to `CN1CCC(N(Cc2ccc(F)cc2F)C(=O)NCc2ccc(O)cc2F)CC1` [Example 119, 1-[(2,4-difluorophenyl)methyl]-3-[(2-fluoro-4-hydroxyphenyl)methyl]-1-(1-methylpiperidin-4-yl)urea], for which the Ki is 63.1 nM.
On the same count and under the same terms, under `CN1CCC(N(Cc2ccc(F)cc2F)C(=O)NCc2ccc3c(ccn3C)c2)CC1` [Example 31] stands 6.31 nM; under `CC(C)COc1ccc(CNC(=O)N(Cc2ccc(C(F)(F)F)cc2O)C2CCN(C)CC2)cc1` [Example 90, 1-{[2-hydroxy-4-(trifluoromethyl)phenyl]methyl}-1-(1-methylpiperidin-4-yl)-3-{[4-(2-methylpropoxy)phenyl]methyl}urea; Trifluoroacetic Acid], 12.6 nM.
As to `COc1ccc(CNC(=O)N(Cc2ccc(F)cc2F)C2CCN(C)CC2)cc1C#N` [Example 48], the Ki was 100 nM.
Same read-out and setting: under `CC(C)Oc1ccc(CNC(=O)N(Cc2ccc(F)cc2Cl)C2CCNCC2)cc1` [Example 110, 1-[(2-chloro-4-fluorophenyl)methyl]-1-(piperidin-4-yl)-3-{[4-(propan-2-yloxy)phenyl]methyl}urea; Trifluoroacetic Acid] stands 25.1 nM; under `CC(C)Oc1ccc(CNC(=O)N(Cc2ccc(F)c(F)c2F)C2CCNCC2)cc1` [Example 132, 1-(piperidin-4-yl)-3-{[4-(propan-2-yloxy)phenyl]methyl}-1-[(2,3,4-trifluorophenyl)methyl]urea; Trifluoroacetic Acid], 79.4 nM.
Still for that read-out and setting: the figure for `CC(C)COc1ccc(CNC(=O)N(Cc2ccc(Cl)cc2F)C2CCNCC2)cc1` [Example 134, 3-[(4-chloro-2-fluorophenyl)methyl]-1-{[4-(2-methylpropoxy)phenyl]methyl}-3-(piperidin-4-yl)urea; Trifluoroacetic Acid] is 3.98 nM; for `CN1CCC(N(Cc2ccc(F)cc2F)C(=O)NCc2ccc(F)cc2)CC1` [Example 49] it is 6.31 nM; for `CN1CCC(N(Cc2ccc(F)cc2F)C(=O)NCc2ccc3[nH]cnc3c2)CC1` [Example 77, 3-[(1H-1,3-benzodiazol-5-yl)methyl]-1-[(2,4-difluorophenyl)methyl]-1-(1-methylpiperidin-4-yl)urea; Trifluoroacetic Acid] it is 79.4 nM.
Still for that read-out and setting: under `CC(C)Oc1ccc(CNC(=O)N(Cc2ccc(Cl)cc2Cl)C2CCNCC2)cc1` [Example 108, 1-[(2,4-dichlorophenyl)methyl]-1-(piperidin-4-yl)-3-{[4-(propan-2-yloxy)phenyl]methyl}urea; Trifluoroacetic Acid] stands 79.4 nM; under `CN1CC[C@@H](N(Cc2ccc(F)cc2F)C(=O)NCc2ccc(OC3CC3)cc2)[C@@H](F)C1` (racemic) [Example 117, 1-[(4-cyclopropoxyphenyl)methyl]-3-[(2,4-difluorophenyl)methyl]-3-[(3S,4R)-3-fluoro-1-methylpiperidin-4-yl]urea and 1-[(4-cyclopropoxyphenyl)methyl]-3-[(2,4-difluorophenyl)methyl]-3-[(3R,4S)-3-fluoro-1-methylpiperidin-4-yl]urea], 0.398 nM; under `CN1CCC(N(Cc2ccc(F)cc2F)C(=O)NCc2ccc(COCCO)c(F)c2)CC1` [Example 88, 1-[(2,4-difluorophenyl)methyl]-3-({3-fluoro-4-[(2-hydroxyethoxy)methyl]phenyl}methyl)-1-(1-methylpiperidin-4-yl)urea; Trifluoroacetic Acid], 63.1 nM.
`O=C(O)C(F)(F)F.[2H]C([2H])([2H])N1CCC(N(Cc2ccc(F)cc2F)C(=O)NCc2ccc(OC(C)C)cc2)CC1` [Example 131, 1-[(2,4-difluorophenyl)methyl]-1-[1-(^2H3)methylpiperidin-4-yl]-3-{[4-(propan-2-yloxy)phenyl]methyl}urea; Trifluoroacetic Acid]: the Ki was 0.631 nM.
For `CN1CCC(N(Cc2ccc(F)cc2F)C(=O)NCc2ccc([N+](=O)[O-])cc2F)CC1` [Example 97, 1-[(2,4-difluorophenyl)methyl]-3-[(2-fluoro-4-nitrophenyl)methyl]-1-(1-methylpiperidin-4-yl)urea; Trifluoroacetic Acid], the Ki is 39.8 nM.
`CCCCOc1ccc(CNC(=O)N(Cc2ccc(F)cc2F)C2CCN(C)CC2)cc1` [Example 124, 3-[(4-butoxyphenyl)methyl]-1-[(2,4-difluorophenyl)methyl]-1-(1-methylpiperidin-4-yl)urea]: the Ki was 10 nM.
Still for that read-out and setting: under `CC(C)Oc1ccc(CNC(=O)N(Cc2ccc(Cl)cc2F)C2CCNCC2)cc1` [Example 133, 3-[(4-chloro-2-fluorophenyl)methyl]-3-(piperidin-4-yl)-1-{[4-(propan-2-yloxy)phenyl]methyl}urea; Trifluoroacetic Acid] stands 5.01 nM.
Same read-out and setting: under `COc1cc(F)ccc1CN(C(=O)NCc1ccc(OCC(C)C)cc1)C1CCN(C)CC1` [Example 91, 1-[(4-fluoro-2-methoxyphenyl)methyl]-1-(1-methylpiperidin-4-yl)-3-{[4-(2-methylpropoxy)phenyl]methyl}urea; Trifluoroacetic Acid] stands 15.8 nM.
On the same count and under the same terms, the figure for `COc1ccc(CNC(=O)N(Cc2ccc(F)cc2)[C@H]2CCN(C)C[C@H]2F)c(OC)c1` (racemic) [Example 1, 1-[(2,4-dimethoxyphenyl)methyl]-3-[(3R,4S)-3-fluoro-1-methylpiperidin-4-yl]-3-[(4-fluorophenyl)methyl]urea; Trifluoroacetic Acid (1a) and 1-[(2,4-dimethoxyphenyl)methyl]-3-[(3S,4R)-3-fluoro-1-methylpiperidin-4-yl]-3-[(4-fluorophenyl)methyl]urea; Trifluoroacetic Acid (1b)] is 25.1 nM.
As for `CCCCOc1ccc(CNC(=O)N(Cc2ccc(F)cc2F)C2CCNCC2)cc1.CCCCOc1ccc(CNC(=O)N(Cc2ccc(F)cc2F)C2CCNCC2)cc1.O=C(O)C(O)C(O)C(=O)O` [Example 123, 3-[(4-butoxyphenyl)methyl]-1-[(2,4-difluorophenyl)methyl]-1-(piperidin-4-yl)urea; Hemitartrate], the “5-HT2a (pKi) (R-SAT)” value is reported as 7.8.
`CN1CCC(N(Cc2ccc(F)cc2F)C(=O)NCc2ccc3c(c2)OC(C)(C)C3)CC1` [Example 59]: the Ki was 15.8 nM.
Same read-out and setting: under `CC(C)Oc1ccc(CNC(=O)N(Cc2ccc(F)cc2F)[C@H]2C[C@H]3CC[C@@H](C2)N3C)cc1` [Example 84, 3-[(2,4-difluorophenyl)methyl]-3-[(1R,3R,5S)-8-methyl-8-azabicyclo[3.2.1]octan-3-yl]-1-{[4-(propan-2-yloxy)phenyl]methyl}urea; Trifluoroacetic Acid] stands 50.1 nM; under `CC(C)COc1ccc(CNC(=O)N(Cc2ccc(C(F)(F)F)cc2Cl)C2CCN(C)CC2)cc1` [Example 67], 79.4 nM.
Still for that read-out and setting: the figure for `CC(C)COc1ccc(CNC(=O)N(Cc2ccc(F)cc2N(C)C)C2CCN(C)CC2)cc1` [Example 69] is 631 nM.
Still for that read-out and setting: under `COc1ccc(CN(C(=O)NCc2ccc(OCC(C)C)cc2)C2CCN(C)CC2)c(OC)c1` [Example 2, 3-[(2,4-dimethoxyphenyl)methyl]-3-(1-methylpiperidin-4-yl)-1-{[4-(2-methylpropoxy)phenyl]methyl}urea] stands 3160 nM; under `CN1CCC(N(Cc2ccc(F)cc2F)C(=O)NCc2ccc(F)cc2OC(F)(F)F)CC1` [Example 99, 1-[(2,4-difluorophenyl)methyl]-3-{[4-fluoro-2-(trifluoromethoxy)phenyl]methyl}-1-(1-methylpiperidin-4-yl)urea; Trifluoroacetic Acid], 79.4 nM; under `CN1CCC(N(Cc2ccc(F)cc2F)C(=O)NCc2ccc3ocnc3c2)CC1` [Example 30], 63.1 nM.
For `COc1ccc(CNC(=O)N(Cc2ccc(F)cc2F)C2CCN(C)CC2)cc1F` [Example 118, 1-[(2,4-difluorophenyl)methyl]-3-[(3-fluoro-4-methoxyphenyl)methyl]-1-(1-methylpiperidin-4-yl)urea], the Ki is 10 nM.
